Columns and labels:
Type in all cases: in vivo
[1] = system: morningglory (Ipomoea coccinea); assay: Test C postemergence, plant response rating; conditions: for Morningglory plant response rating: scale 0 to 100 (0 no effect, 100 complete control)
How it was run: (§1)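 Preemergence: seeds sown in loam–sand blend or silt loam and sprayed with test chemicals in a non-phytotoxic surfactant-containing solvent. Postemergence: potted plants at 2–18 cm (1–4-leaf stage) sprayed with the same formulation. After 13–15 d in greenhouse, visual rating versus controls on 0 (no effect) to 100 (complete control) scale.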

[2] = system: chickweed (common chickweed, Stellaria media); assay: Test C postemergence, plant response rating; conditions: for Chickweed plant response rating: scale 0 to 100 (0 no effect, 100 complete control)
How it was run: as §1

[3] = system: foxtail, giant (giant foxtail, Setaria faberii); assay: Test C postemergence, plant response rating; conditions: for Foxtail, Giant plant response rating: scale 0 to 100 (0 no effect, 100 complete control)
How it was run: as §1

[4] = system: sedge, umbrella (small-flower umbrella sedge, Cyperus difformis); assay: Test B flooded paddy test, plant response rating; conditions: 250 g ai/ha; Flood; scale of 0 to 100 where 0 is no effect and 100 is complete control; 13 to 15 days
How it was run: (§2)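 Pots were flooded to 3 cm above the soil surface at treatment, compound applied directly to the paddy water, and that depth held throughout. Plants were kept in a greenhouse for 13 to 15 days, then visually rated against untreated controls.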

[5] = system: barnyardgrass (Echinochloa crus-galli); assay: Test B flooded paddy test, plant response rating; conditions: 250 g ai/ha; Flood; scale of 0 to 100 where 0 is no effect and 100 is complete control; 13 to 15 days
How it was run: as §2

[6] = system: ducksalad (Heteranthera limosa); assay: Test B flooded paddy test, plant response rating; conditions: 250 g ai/ha; Flood; scale of 0 to 100 where 0 is no effect and 100 is complete control; 13 to 15 days
How it was run: as §2

[7] = system: rice (Oryza sativa); assay: Test B flooded paddy test, plant response rating; conditions: 250 g ai/ha; Flood; scale of 0 to 100 where 0 is no effect and 100 is complete control; 13 to 15 days
How it was run: as §2

[8] = system: waterhemp (common waterhemp, Amaranthus rudis); assay: Test C preemergence, plant response rating; conditions: Preemergence
How it was run: as §1

[9] = system: morningglory (Ipomoea coccinea); assay: Test C preemergence, plant response rating; conditions: Preemergence
How it was run: as §1

[10] = system: oilseed rape (Brassica napus); assay: Test C preemergence, plant response rating; conditions: Preemergence
How it was run: as §1

[11] = system: ryegrass, Italian (Italian ryegrass, Lolium multiflorum); assay: Test C preemergence, plant response rating; conditions: Preemergence
How it was run: as §1

[12] = system: soybean (Glycine max); assay: Test C preemergence, plant response rating; conditions: Preemergence
How it was run: as §1

[13] = system: blackgrass (Alopecurus myosuroides); assay: Test C preemergence, plant response rating; conditions: Preemergence
How it was run: as §1

[14] = system: corn (Zea mays); assay: Test C preemergence, plant response rating; conditions: Preemergence
How it was run: as §1

[15] = system: velvetleaf (Abutilon theophrasti); assay: Test C preemergence, plant response rating; conditions: Preemergence
How it was run: as §1

[16] = system: ragweed (common ragweed, Ambrosia elatior); assay: Test C preemergence, plant response rating; conditions: Preemergence
How it was run: as §1

[17] = system: wheat (winter wheat, Triticum aestivum); assay: Test C preemergence, plant response rating; conditions: Preemergence
How it was run: as §1

[18] = system: crabgrass, large (large crabgrass, Digitaria sanguinalis); assay: Test C preemergence, plant response rating; conditions: Preemergence
How it was run: as §1

[19] = system: lambsquarters (Chenopodium album); assay: Test C preemergence, plant response rating; conditions: Preemergence
How it was run: as §1

[20] = system: foxtail, giant (giant foxtail, Setaria faberii); assay: Test C preemergence, plant response rating; conditions: Preemergence
How it was run: as §1

[21] = system: nutsedge, yellow (yellow nutsedge, Cyperus esculentus); assay: Test C preemergence, plant response rating; conditions: Preemergence
How it was run: as §1

## O=C(CCCCC(F)(F)F)c1c(Br)cccc1Oc1ncc(Cl)cn1 [Compound 82]
[1]; 16 g ai/ha, scale of 0 to 100
  Plant response rating, Morningglory: 25
[1]; 31 g ai/ha, scale 0 to 100
  Plant response rating, Morningglory: 40
[1]; 62 g ai/ha
  Morningglory plant response rating: 30
[1]; 125 g ai/ha
  Morningglory plant response rating: 75
[2]; 16 g ai/ha, scale of 0 to 100
  Plant response rating, Chickweed: 55
[2]; 31 g ai/ha, scale 0 to 100
  Plant response rating, Chickweed: 85
[2]; 62 g ai/ha
  Chickweed plant response rating: 90
[2]; 125 g ai/ha
  Chickweed plant response rating: 90
[3]; 16 g ai/ha, scale of 0 to 100
  Plant response rating, Foxtail, Giant: 10
[3]; 31 g ai/ha, scale 0 to 100
  Plant response rating, Foxtail, Giant: 10
[3]; 62 g ai/ha
  Foxtail, Giant plant response rating: 10
[3]; 125 g ai/ha
  Foxtail, Giant plant response rating: 20
[4]
  Plant response rating, Sedge, Umbrella: 95
[5]
  Plant response rating, Barnyardgrass: 35
[6]
  Plant response rating, Ducksalad: 100
[7]
  Plant response rating, Rice: 30
[8]; 125 g ai/ha, scale of 0 to 100
  Plant response rating, Waterhemp: 100
[8]; 31 g ai/ha, scale 0 to 100
  Plant response rating, Waterhemp: 50
[8]; 62 g ai/ha, scale 0 to 100
  Plant response rating, Waterhemp: 100
[9]; 125 g ai/ha, scale of 0 to 100
  Plant response rating, Morningglory: 10
[9]; 31 g ai/ha, scale 0 to 100
  Plant response rating, Morningglory: 0
[9]; 62 g ai/ha, scale 0 to 100
  Plant response rating, Morningglory: 0
[10]; 125 g ai/ha, scale of 0 to 100
  Plant response rating, Oilseed Rape: 50
[10]; 31 g ai/ha, scale 0 to 100
  Plant response rating, Oilseed Rape: 0
[10]; 62 g ai/ha, scale 0 to 100
  Plant response rating, Oilseed Rape: 5
[11]; 125 g ai/ha, scale of 0 to 100
  Plant response rating, Ryegrass, Italian: 5
[11]; 31 g ai/ha, scale 0 to 100
  Plant response rating, Ryegrass, Italian: 0
[11]; 62 g ai/ha, scale 0 to 100
  Plant response rating, Ryegrass, Italian: 5
[12]; 125 g ai/ha, scale of 0 to 100
  Plant response rating, Soybean: 0
[12]; 31 g ai/ha, scale 0 to 100
  Plant response rating, Soybean: 0
[12]; 62 g ai/ha, scale 0 to 100
  Plant response rating, Soybean: 0
[13]; 125 g ai/ha, scale of 0 to 100
  Plant response rating, Blackgrass: 5
[13]; 16 g ai/ha, scale 0 to 100
  Plant response rating, Blackgrass: 0
[13]; 31 g ai/ha, scale 0 to 100
  Plant response rating, Blackgrass: 0
[13]; 62 g ai/ha, scale 0 to 100
  Plant response rating, Blackgrass: 5
[14]; 125 g ai/ha, scale of 0 to 100
  Plant response rating, Corn: 5
[14]; 16 g ai/ha, scale 0 to 100
  Plant response rating, Corn: 0
[14]; 31 g ai/ha, scale 0 to 100
  Plant response rating, Corn: 0
[14]; 62 g ai/ha, scale 0 to 100
  Plant response rating, Corn: 0
[15]; 125 g ai/ha, scale of 0 to 100
  Plant response rating, Velvetleaf: 10
[15]; 31 g ai/ha, scale 0 to 100
  Plant response rating, Velvetleaf: 0
[15]; 62 g ai/ha, scale 0 to 100
  Plant response rating, Velvetleaf: 0
[16]; 125 g ai/ha, scale of 0 to 100
  Plant response rating, Ragweed: 30
[16]; 31 g ai/ha, scale 0 to 100
  Plant response rating, Ragweed: 0
[16]; 62 g ai/ha, scale 0 to 100
  Plant response rating, Ragweed: 20
[17]; 125 g ai/ha, scale of 0 to 100
  Plant response rating, Wheat: 0
[17]; 31 g ai/ha, scale 0 to 100
  Plant response rating, Wheat: 0
[17]; 62 g ai/ha, scale 0 to 100
  Plant response rating, Wheat: 0
[18]; 125 g ai/ha, scale of 0 to 100
  Plant response rating, Crabgrass, Large: 98
[18]; 16 g ai/ha, scale 0 to 100
  Plant response rating, Crabgrass, Large: 60
[18]; 31 g ai/ha, scale 0 to 100
  Plant response rating, Crabgrass, Large: 70
[18]; 62 g ai/ha, scale 0 to 100
  Plant response rating, Crabgrass, Large: 90
[19]; 125 g ai/ha, scale of 0 to 100
  Plant response rating, Lambsquarters: 70
[19]; 31 g ai/ha, scale 0 to 100
  Plant response rating, Lambsquarters: 20
[19]; 62 g ai/ha, scale 0 to 100
  Plant response rating, Lambsquarters: 20
[20]; 125 g ai/ha, scale of 0 to 100
  Plant response rating, Foxtail, Giant: 98
[20]; 31 g ai/ha, scale 0 to 100
  Plant response rating, Foxtail, Giant: 80
[20]; 62 g ai/ha, scale 0 to 100
  Plant response rating, Foxtail, Giant: 90
[21]; 125 g ai/ha, scale of 0 to 100
  Plant response rating, Nutsedge, Yellow: 0
[21]; 31 g ai/ha, scale 0 to 100
  Plant response rating, Nutsedge, Yellow: 0
[21]; 62 g ai/ha, scale 0 to 100
  Plant response rating, Nutsedge, Yellow: 0

Reference: US11053204B2, “Pyrimidinyloxy benzene derivatives as herbicides” (FMC Corporation, priority 2015, dated 2021)
